One test deals with hippocampus area CA1. The test can be described thus: Extracellular recordings (pEPSPs, population spikes) in acute rat hippocampal brain slice preparation. The class given is cell-based. Particulars: for pEPSPs, fraction of control (FIG. 4D) / pSpikes, fraction of control (FIG. 4C): 10 nM SEQ ID NO:11, 20 nM SEQ ID NO:9 and SEQ ID NO:15, 250 μM NEM, adult rat hippocampus; for excitatory synaptic input into primary cells in the rat CA1: acute rat hippocampal brain slice; for reversal of effects upon removal of peptide from the superfusate: washout.

In another test the test system is embryonic mouse tissues. Briefly: Binding of I125-labeled peptides to embryonic mouse tissues (autoradiography, Tuj1 staining). The source says: (§1) The binding of I^125-labeled peptides to embryonic and adult rodent tissues was studied in vitro. Chemically synthesized peptides containing an extra N-terminal tyrosine (Sigma-Genosys, Cambridge, UK) were labeled with lactoperoxidase (Trupp et al. (1995) J. Cell Biol. 130(1): 137-148). Specific activities obtained for each were 0.5-2.5×10^14 cpm/mmol, except for SEQ ID NO:9 10^13 cpm/mmol. From both E17 Wistar rat and E15 mouse embryos, kidneys, gut, pancreas and spinal cord were dissected. In addition, testes, ovaries, brain and adrenal glands of the embryonic mice were taken. The binding was performed and paraffin sections of embryonic tissues were processed as described (Partanen et al. (1987) Dev Biol 120(1): 186-197). Freshly cut adult rat brain slices of 1 mm were cut and incubated in 0.5-1 nmol/ml of ^125I-peptides, washed and processed for paraffin sections. Kodak (Rochester, N.Y.) NTB-2 emulsion was used for autoradiography and the samples were exposed from 3 to 12 weeks at +4° C. The sections were developed with Kodak D19 and stained with hematoxylin.
For immunohistochemical staining of tissues, paraffin sections were mounted with Immumount (Shandon, Pittsburgh, Pa.). Sections were stained with an anti-class III β-tubulin antibody (Tuj1; Covance Inc., Princeton, N.J.), which recognizes selectively neuronal cells. Staining was performed with Vectastain kit (Vector Laboratories, Burlingame, Calif.) according to manufacturer's instructions, except that the primary antibody (1:300) was incubated in +4° C. o/n.

For another test, the system named is adult rat brain. The test can be described thus: Binding of I125-labeled peptides to adult rat brain slices (autoradiography).
Source text: as §1
For immunohistochemical staining of tissues, paraffin sections were mounted with Immumount (Shandon, Pittsburgh, Pa.). Sections were stained with an anti-class III β-tubulin antibody (Tuj1; Covance Inc., Princeton, N.J.), which recognizes selectively neuronal cells. […]

In the next test the test system is synaptic transmission. The following applies: Qian et al (1997); cited from earlier work.
A further test has as its system ureteric branching. The following applies: Sainio et al. (1997); cited from earlier work.
For a further test, the system named is primary neurons. Particulars: U. Arumäe, personal communication; cited from earlier work.
The mark [1] stands for this setting: 10 nM peptide in the presence of 250 μM NEM.
The mark [2] stands for this setting: superfusion with 10-50 nM, 0.05 Hz stimulation of Schaffer collateral fibres, CA1, slices from P28-P35 rats.

Entries after “also recorded” stand apart in the source; their conditions may differ. No end group written: not given here.

These results are taken from US20060258576A1, “Gdnf-related neuropeptides” (Licentia, Ltd, priority 2003, published 2006).

Turning to `CCN1C(=O)C=CC1=O` [NEM, N-ethylmaleimide, reference compound], in the test on hippocampus area CA1, the “pEPSPs, fraction of control (FIG. 4D)” value is on record as “increases” and the “pSpikes, fraction of control (FIG. 4C)” value is “increases”. Further, in the test with hippocampus area CA1 (NEM by bath perfusion, every slice recorded), the stimulus-evoked responses entry is given as “increased”.
Regarding “FPLPA(a) (FPLPA-NH2; not fully specified) [SEQ ID NO:9, GDNF precursor-derived neuropeptide; human, mouse, rat]”, in the test with hippocampus area CA1 (CA1, rat hippocampal slices), the “presynaptic fiber volley (in words)” value is reported as “significant decrease”. Also, the “change of pSPs” value with hippocampus area CA1 (CA1, rat hippocampal slices, concentration not given) is recorded as −24%. Moreover, in the test with hippocampus area CA1, the “excitatory synaptic input into primary cells in the rat CA1” value is on record as “modulate” and the “reversal of effects upon removal of peptide from the superfusate” value is listed as “fully or almost fully reversed”. Further, the specific binding result with embryonic mouse tissues (I125-labeled peptide with extra N-terminal tyrosine) was “specific binding”. Further, the “tissue distribution of binding” value in the test on embryonic mouse tissues (I125-labeled peptide, E15 mouse embryo tissues) is “restricted to embryonic mouse tissues outside the CNS; also recorded: bound to embryonic (E15) mouse tissues”. Further, the binding in testis entry in the test with embryonic mouse tissues (embryonic mouse testis (FIG. 3 I, J)) is “binding to the interstitium”. Besides, the “distribution of binding versus neuronal β-tubulin (Tuj1) staining” value in the test on embryonic mouse tissues (gut and metanephric kidney capsule (FIG. 3 E-H)) is “closely overlapped”.
“LLEAPAEDHSL(a) (LLEAPAEDHSL-NH2; not fully specified) [SEQ ID NO:11, GDNF precursor-derived neuropeptide; mouse, rat]”: in the test with hippocampus area CA1, the “pEPSPs, fraction of control (FIG. 4D)” value is recorded as “substantially increases”; the “pSpikes, fraction of control (FIG. 4C)” value is “substantially increases”; the “excitatory synaptic input into primary cells in the rat CA1” value is reported as “modulate”; the “reversal of effects upon removal of peptide from the superfusate” value is “fully or almost fully reversed”. In addition, in the test with hippocampus area CA1 (setting [1]), the “pEPSPs when peptide is added to NEM” value is listed as “no further increase” and the “pSpikes when peptide is added to NEM” value is on record as “no further increase”. Further, the “increase in presynaptic volley with or without NEM (FIG. 4 A, B)” value in the test on hippocampus area CA1 (10 nM peptide, absence or presence of 250 μM NEM) is listed as “seen only in the absence of NEM”. Further, the “average increase in the presynaptic fiber volley” value in the test on hippocampus area CA1 (CA1, rat hippocampal slices) is 34%. For the same molecule, the “effect on excitability in the presence of a Gi/o-blocking agent” value in the test on hippocampus area CA1 (in the presence of NEM (FIG. 4 B, C, D)) is recorded as “no effect”. In addition, the “effective concentrations on pEPSP and pSpike (FIG. 6)” value in the test with hippocampus area CA1 (increasing concentrations) is on record as “nanomolar”. In the test with hippocampus area CA1 (setting [2]), the “increase of pEPSPs” value is recorded as 30-40% and the “increase of population spikes (pSPs)” value is 30-40%. The specific binding entry in the test on adult rat brain (I125-labeled peptide with extra N-terminal tyrosine, 0.5-1 nmol/ml) is reported as “specific binding”. In addition, in the test with adult rat brain (I125-labeled peptide, sections containing the hippocampal area), the “binding to adult rat brain slices (FIG. 3 A-D)” value was “extensive binding exclusively in adult rat brain; also recorded: intensive binding”.
Turning to “PYY3-36: peptide YY fragment, literature comparison”, the “levels necessary for inhibition of synaptic transmission” value in the test on synaptic transmission was 1 µM.
Take neuropeptide Y [NPY]: the “levels necessary for inhibition of synaptic transmission” value in the test with synaptic transmission is 1 µM.

B1: glial cell line-derived neurotrophic factor (protein, UniProt P39905 78-211, looked up)
Glial cell line-derived …: SPDKQMAVLPRRERNRQAAAANPENSRGKGRRGQRGKNRGCVLTAIHLNVTDLGLGYETKEELIFRYCSGSCDAAETTYDKILKNLSRNRRLVSDKVGQACCRPIAFDDDLSFLDDNLVYHILRKHSAKRCGCI
notes: neurotrophic factor, literature comparison
Turning to B1, the “concentrations required for promotion of ureteric branching” value in the test with ureteric branching was “nanomolar”. Also, the “concentrations required for maintenance of primary neurons” value in the test on primary neurons is on record as “nanomolar”.
